From patent publication US20090005424A9, “Composition and Method for Treating Fibrotic Diseases” (priority 2005, published 2009)
Like-named read-outs stand apart in the source and are kept apart here. Marks after values point to notes of the source that are not given here.

Columns and labels:
[1] = system: Human Skin Scar Forming Fibroblasts; test: MTT proliferation assay, human skin scar forming fibroblasts; type: cell-based
Experimental: In the following examples, myocardiac fibroblasts, skin scar forming fibroblast and human peritoneal mesothelial cells are primary cultures prepared according to common procedure. Other cells are commercially purchased. 1-(3-fluorophenyl)-5-methyl-2(1H)-pyridone (AKF-PD) is prepared as a suspension in 5% carboxymethylcellulose.
Cell proliferation was measured by MTT assay. DMEM with 10% fetal serum was used as cell culture medium. The cells were prepared in suspension (1×10^5/ml), and 100 μL of the suspension was transferred to each well of a 96 wells plate. Once the cells were attached to the plastic, the culture was changed to serum free medium and incubated for another 24 hours. Then, the serum free medium was aspirated, and various concentrations of 1-(3′-fluorophenyl)-5-methyl-2(1H)-pyridone (AKF-PD) or PIRFENIDONE (PFD) in 10% serum medium were added into each well with 5 replicates for each concentration. The cells were stained with MTT (10 μL per well) at 12, 24, or 48 hours post drug treatment. After 4 hrs of incubation, the medium with MTT was aspirated from each well. One hundred μL MTT solvent was added to each well for 15 min, and the dissolved MTT was measured with a plate reader at 570 nm.

[2] = system: Kidney Fibroblast; test: MTT proliferation assay, mouse kidney fibroblast; type: cell-based; settings: for order of inhibitory effect: kidney fibroblast
Experimental: Cell proliferation was measured by MTT assay. DMEM with 10% fetal serum was used as cell culture medium. The cells were prepared in suspension (1×10^5/ml), and 100 μL of the suspension was transferred to each well of a 96 wells plate. Once the cells were attached to the plastic, the culture was changed to serum free medium and continued for another 24 hours. The serum free medium was aspirated, and various concentrations of 1-(3′-fluorophenyl)-5-methyl-2(1H)-pyridone (AKF-PD) 1-(3′-bromophenyl)-5-methyl-2(1H)-pyridone (AKF-BR) or PIRFENIDONE (PFD) in 10% serum medium were added into each well with 5 replicates for each concentration. The cells were stained with MTT (10 μL per well) at 24, 48, and 72 hours post drug treatment. After 4 hrs of incubation, the medium with MTT was aspirated from each well. One hundred μL MTT solvent was added to each well for 15 min. The dissolved MTT was then measured with a plate reader at 570 nm.

[3] = system: ICR mice injected with bleomycin; test: Bleomycin-induced mouse pulmonary fibrosis, histological score of lung tissue; type: in vivo; settings: AKF-PD and PFD 500 mg/kg, captopril 12.5 mg/kg by gavage day 1 to 28, Szapiel's method
Experimental: Under regular care condition, 7-10 weeks old, male, institute of cancer research (ICR) mice, weight 28-39 g, were randomly grouped as normal control, disease, disease/AKF-PD, disease/PFD and disease Captopril group.
Control group was injected with normal saline once day from day 2 to 15 days. Disease, disease/AKF-PD, disease/PFD and disease/captopril groups were injected with bleomycin once day from day 2 to 15. Control and disease groups were given 0.5% CMC by gavage once a day from day 1 to day 28. 500 mg/kg of AKF-PD CMC suspension and PD CMC suspension and 12.5 mg/kg captopril in saline were administered to respective groups by gavage once day from day 1 to day 28. All animals were sacrificed on day 29 and their lungs were removed for pathological (HE staining) examination.
Histological scoring for the lung tissue was done according Szapiel's method.

[4] = system: SD rat, renal interstitial fibrosis induced by surgical ligation of single side ureter; test: Rat ureter ligation model of renal interstitial fibrosis, AKF-PD vs PFD (Example 12); type: in vivo; settings: ureter-ligated rats; PFD 500 mg/kg/d, AKF-PD 500 mg/kg/d by gavage; 14 days post surgery
Experimental: Anti-fibrotic effect of AKF-PD was tested on a SD rat model for renal interstitial fibrosis induced by surgical ligation of single side ureter. Male SD rats (180 g˜220 g) were randomly divided into disease model group, PFD (500 mg/kg/d) group and AKF-PD (500 mg/kg/d) group. […] The respective drugs were administrated by gavage to rats in the groups of PFD and AKF-PD from one day prior to the procedure to 14 days post surgical procedure. Normal saline was administrated in a similar fashion to the rats in the groups of disease model. The animals were sacrificed 14 days after surgical procedure and their kidney were removed for pathological (HE staining) examination.

[5] = system: Kun Ming (KM) mice; settings: cited from earlier work
[6] = system: fibroblast; test: Inhibition of fibroblast, side-by-side comparison of substituents; type: cell-based; settings: structural formula II, n=1
[7] = system: Kun Ming (KM) mice; test: Acute oral toxicity in Kun Ming mice, LD50 by Bliss method; settings: mouse, in vivo
Experimental: Male and female Kun Ming (KM) mice weighing between 18 g-22 g were acquired from the animal facility of Hsiang-Ya Medical College, the Central South University. Fifty Kun Ming mice were randomly assigned into 5 groups with 5 male and 5 female mice for each group. The animals went through fasting with a normal water supply before starting drug treatment (either AKF-PD or PIRFENIDONE). The drug was administrated orally by gavage. The volume of liquid drug was 20 ml/kg body weight. The range of dosage for AKF-PD administrated was from 1071 mg/kg to 6000 mg/kg. The dosage difference between two adjacent doses was 1:0.65 (a dose vs the next lower dose). All animals were maintained under a regular condition. Acute toxic reaction and death within 14 days of post drug treatment were recorded. Autopsy was performed on all dead animals and visual examination was performed on all organs.
LD50 was calculated according to Bliss method. […] The results of Table 15 are very close to those reported in the literature: 997.7 mg/kg (U.S. Pat. No. 5,310,562) and 1112 mg/kg(Pharmaceutical Care and Research 5:4823(2005)).

Row | Structure (SMILES) | Optical Density at 570 nm ([1]; 100 μg/ml, 12 h) | Optical Density at 570 nm ([1]; 100 μg/ml, 24 h) | Optical Density at 570 nm ([1]; 100 μg/ml, 48 h) | Optical Density at 570 nm ([1]; 500 μg/ml, 12 h) | Optical Density at 570 nm ([1]; 500 μg/ml, 24 h) | Optical Density at 570 nm ([1]; 500 μg/ml, 48 h) | Optical Density at 570 nm ([1]; 1000 μg/ml, 12 h) | Optical Density at 570 nm ([1]; 1000 μg/ml, 24 h) | Optical Density at 570 nm ([1]; 1000 μg/ml, 48 h) | Optical Density at 570 nm ([1]; 2500 μg/ml, 12 h) | Optical Density at 570 nm ([1]; 2500 μg/ml, 24 h) | Optical Density at 570 nm ([1]; 2500 μg/ml, 48 h) | Optical Density at 570 nm ([2]; 100 μg/ml, 24 h) | Optical Density at 570 nm ([2]; 100 μg/ml, 48 h) | Optical Density at 570 nm ([2]; 100 μg/ml, 72 h) | Optical Density at 570 nm ([2]; 500 μg/ml, 24 h) | Optical Density at 570 nm ([2]; 500 μg/ml, 48 h) | Optical Density at 570 nm ([2]; 500 μg/ml, 72 h) | Optical Density at 570 nm ([2]; 1000 μg/ml, 24 h) | Optical Density at 570 nm ([2]; 1000 μg/ml, 48 h) | further results
1 | Cc1ccc(=O)n(-c2ccccc2)c1 [PFD, 5-methyl-1-phenyl-2(1H)-pyridone, reference compound] | 0.194 ± 0.004 | 0.250 ± 0.003 | 0.366 ± 0.006 | 0.191 ± 0.008 | 0.245 ± 0.004*^+ | 0.350 ± 0.003***^++ | 0.190 ± 0.008 | 0.330 ± 0.001*^++ | 0.328 ± 0.004***^++ | 0.193 ± 0.004 | 0.278 ± 0.001***^+++ | 0.264 ± 0.005 | 0.5911 ± 0.1002 | 0.5844 ± 0.0171 | 0.5264 ± 0.1530 | 0.5877 ± 0.1204 | 0.5450 ± 0.0196 | 0.4798 ± 0.2355 | 0.5798 ± 0.0149 | 0.5272 ± 0.0229 | Optical Density at 570 nm ([2]; 1000 μg/ml, 72 h): 0.4269 ± 0.0302; order of inhibitory effect [2]: AKF-PD>AKF-BR>pirfenidone; Histological Score for Lung Tissue, Mean [3]: 2.0909; Histological Score for Interstitial Compartment [4]: 8.06 ± 2.41; LD50 reported in the literature ([5]; Pharmaceutical Care and Research 5:4823(2005)): 1112 mg/kg; LD50 reported in the literature ([5]; U.S. Pat. No. 5,310,562): 997.7 mg/kg
2 | Cc1ccc(=O)n(-c2cccc(F)c2)c1 [AKF-PD, 1-(3′-fluorophenyl)-5-methyl-2(1H)-pyridone] | 0.192 ± 0.010 | 0.245 ± 0.002 | 0.366 ± 0.006 | 0.192 ± 0.006 | 0.238 ± 0.004 | 0.345 ± 0.007 | 0.192 ± 0.009 | 0.221 ± 0.004 | 0.323 ± 0.009 | 0.190 ± 0.002 | 0.198 ± 0.008 | 0.267 ± 0.001 | 0.5907 ± 0.0199 | 0.5850 ± 0.0134 | 0.5080 ± 0.0145 | 0.5799 ± 0.1086 | 0.5185 ± 0.0331 | 0.4314 ± 0.0264 | 0.5638 ± 0.0142 | 0.4298 ± 0.0258 | activity inhibiting fibroblast [6]: activities inhibiting fibroblast; anti-proliferative potency compared with PIRFENIDONE ([1]; human skin fibroblasts): more potent anti-proliferative agent than PIRFENIDONE; LD50 as percent of that of PIRFENIDONE ([7]; both, Kun Ming (KM), 14 days): 30%; LD50 95% confidence limit ([7]; both, Kun Ming (KM), po, 14 days): (2402.70 − 3695.73) mg/kg; toxicity relative to that of PIRFENIDONE [7]: one third; inhibition of proliferation of kidney fibroblast [2]: capable of inhibiting the proliferation of kidney fibroblast; Optical Density at 570 nm ([2]; 1000 μg/ml, 72 h): 0.3511 ± 0.0215; order of inhibitory effect [2]: AKF-PD>AKF-BR>pirfenidone; Histological Score for Lung Tissue, Mean [3]: 2.0000; Histological Score for Interstitial Compartment [4]: 7.11 ± 1.38
